According to patent US12011447B2, “Pharmaceutical composition for treating thyroid cancer comprising tyrosine kinase activity inhibitor as active ingredient” (Kyungpook National University Industry-Academic Cooperation …, priority 2017, dated 2024):

Assays:
[1] = test system: anaplastic thyroid cancer xenograft (8505C-PNIS-PCMV); test: In vivo bioluminescence imaging of F-luc2 (NIS expression); design: species or system Balb/c nude mice; conditions: 50 mg/kg every day for 5 days, D-luciferin
Protocol: (§1) Female Balb/c nude mice, 5.5-week old with an average weight of 18.9±0.37 g (mean±standard deviation [SD]), were purchased (Hamamatsu, Shizuoka, Japan). The mice were acclimated under specific pathogen-free conditions for one week before starting the experiment, and were maintained at a temperature of 20 to 25° C. and a relative humidity of 40 to 70%. To establish anaplastic thyroid cancer xenograft mouse models, 8505C-PNIS-PCMV s (5×10^6) were mixed with Matrigel (Corning) at a ratio of 1:1 and injected subcutaneously into the right flank region of each mouse.
In order to examine whether the expression of NIS would be increased by TKI-0266, mice for use in the experiment were divided into two groups (n=5): the vehicle group; and the TKI-0266-administered group (50 mg/kg). 50 mg/kg of TKI-0266 was administered intravenously to the established anaplastic thyroid cancer xenograft mice every day for 5 days. On day 0 (before administration of TKI-0266) and day 6 after the start of administration of TKI-0266, to measure the R-luc signal with IVIS Lumina III, h-coelenterazine (15 μg/ml) was administered to the mice by intravenous injection. Next, D-luciferin (150 μg/ml) was administered intraperitoneally to the mice, and the bioluminescence image (hereinafter referred to as BLI) was acquired.

8505C cells = test: 131I clonogenic assay; assay type: cell-based, human
Protocol: 8505C cells (4×10^5) cells were seeded in a six-well plate, and then treated with TKI-0266 and incubated for 24 hours. Next, the medium was removed, and the cells were washed twice with bHBSS, and then incubated in the presence or absence of 50 μCi/ml ^131I (KIRAMS, Korea) containing 30 μM NaI for 7 hours at 37° C. After incubation, the cells were washed twice with bHBSS, re-seeded in a new six-well plate at a density of 1,000 cells/well, and then incubated for 7 days to induce colony formation. On day 7, the medium was removed and the cells were washed twice with PBS. A fixation buffer containing acetic acid:methanol at a ratio of 1:7 was added to the cells and the plate was left to stand at room temperature for 5 minutes to fix colonies. The fixed colonies were stained with 0.05% crystal violet for 1 hour and immersed in tap water to remove crystal violet. The colonies containing 50 or more cells were counted. Percentage inhibition was calculated as the number of colonies formed in the TKI-0266-treated group relative to the vehicle control.

[2] = test system: anaplastic thyroid cancer xenograft (8505C-PNIS-PCMV); test: Tumor growth inhibition in xenograft mice (tumor size, R-luc BLI); assay type: in vivo, Balb/c nude mice
Protocol: as §1
In addition, in order to evaluate the effect of TKI-0266 administration on the treatment of thyroid cancer, mice for use in the experiment were divided into four groups (n=5): the vehicle group; the ^131I-administered group (injected intraperitoneally with 1 mCi Na-^131I on day 2 of the experiment; the TKI-0266-administered group (injected intraperitoneally with 50 mg/kg of TKI-0266 for 5 days); and the group co-administered with ^131I and TKI-0266 (injected intraperitoneally with 50 mg/kg of TKI-0266 for 5 days, and injected intravenously with 1 mCi Na-^131I on day 2; n=5). To measure the degree of tumor growth, h-coelenterazine (15 μg/ml) was administered to the mice by intravenous injection, and then the R-luc activity was monitored by BLI every 5 days.

NIS promoter = NIS promoter activity by F-luc2 bioluminescence (BLI) in dual-reporter cells; assay type: cell-based, human; conditions: 8505C-PNIS-PCMV cells
From the text: A pNIS-FL2-TurboFP635-pCMV-Rluc recombinant vector expressing reporter genes driven by dual promoters was constructed by Cosmo Genetech, Ltd. (Republic of Korea) using a pNIS-FL2-TurboFP635 vector and a pcDNA3.1/Hygro(+) vector. Specifically, in order to screen a substance that increases the activity of NIS promoter, Firefly-luciferase2(F-luc2) and TurboFP635 were included downstream (clockwise) of the NIS promoter. In order count cells, CMV promoter and Renilla-luciferase (R-luc) were included upstream (counterclockwise) of the NIS promoter. The pNIS-FL2-TurboFP635 vector was provided from Dr. Abhijit De (ACTREC, India), and the pcDNA3.1/Hygro(+) vector was purchased from invitrogen (USA).
The 8505C cell line was transfected with the pNIS-FL2-TurboFP635-pCMV-Rluc recombinant vector using the Fu-GENE HD solution according to the protocols of the manufacturer (Promega). The ratio of the recombinant vector to the Fu-GENE HD solution was 1:4, and the transfected cells were selected using 600 μg/ml of geneticin (AG Scientific). The selected cell line that stably expresses the dual-reporter gene system is referred to herein as ‘8505C-PNIS-PCMV’ cell line.
To examine transcriptional regulation of the NIS (sodium iodide symporter) promoter, the 8505C-PNIS-PCMV cells were treated with a tyrosine kinase inhibitor (hereinafter referred to as TKI) library for 24 hours. Next, D-luciferin (150 μg/ml) was added to the cells, and the activity of NIS promoter was measured by IVIS Lumina III (Perkin-Elmer, Wellesley, Mass., USA). To normalize the NIS promoter activity to cell number, 10 μg/ml of h-coelenterazine was added to the cells, and the activity of R-luc was measured. The activity of F-luc2 was divided by the R-luc activity. The TKI library used in the experiment was obtained from the Korea Chemical Bank (www.chembank.org) in the Korea Research Institute of Chemical Technology (Republic of Korea). Among the TKI candidates, TKI-0266 was selected, purchased from Chemdiv (USA), dissolved in DMSO, and then stored at −80° C.

Cc1cc2c(N(C)C3CCCCC3)ncnc2s1 [TKI-0266]
activity of F-luc2 in vivo (NIS expression) [1]: significantly increased | colony-forming ability compared to vehicle group (8505C cells; TKI-0266 alone): decreased | colony-forming ability compared to vehicle, 131I-treated and TKI-0266-treated groups (8505C cells; co-treated with 131I and TKI-0266): significantly decreased | tumor growth rate compared to vehicle group and 131I alone group ([2]; TKI-0266 alone, 50 mg/kg for 5 days): slow tumor growth rate | tumor growth inhibitory effect among the four experimental groups ([2]; co-administered with 131I and TKI-0266): best tumor growth inhibitory effect | R-luc signal intensity ([2]; co-administered with 131I and TKI-0266, day 6 after administration): decreased | R-luc signal intensity ([2]; co-administered with 131I and TKI-0266, day 11 after administration): restored | tumor size on days 6 and 11 ([2]; single agent administration): increase | concentration showing the highest F-luc2 activity (NIS promoter): 12.5 µM | BLI signal activity of F-luc2 (NIS promoter activity), increase (NIS promoter; 24 hours, screening): 3.19 fold | BLI signal of F-luc2 as treatment concentration increased (NIS promoter; FIG. 7A): increased | activity of NIS promoter (normalized by cell viability) as treatment concentration increased (NIS promoter; FIG. 8): increased
